# Where two headings read alike, the source gives them in different places. Residues, ends and D or L forms follow the SMILES beside them.
# Tests used:
# GPR103 = biological target: T1, GPR103 (Homo sapiens, UniProt Q96P65); assay: Radioligand competition binding with [125I]-43RFa
# T1 construct: expressed in transfected cells; host or cells: CHO cells (gift from M. Parmentier, IRIBHM, Brussels), membranes
# T1 sequence (Q96P65 1-431): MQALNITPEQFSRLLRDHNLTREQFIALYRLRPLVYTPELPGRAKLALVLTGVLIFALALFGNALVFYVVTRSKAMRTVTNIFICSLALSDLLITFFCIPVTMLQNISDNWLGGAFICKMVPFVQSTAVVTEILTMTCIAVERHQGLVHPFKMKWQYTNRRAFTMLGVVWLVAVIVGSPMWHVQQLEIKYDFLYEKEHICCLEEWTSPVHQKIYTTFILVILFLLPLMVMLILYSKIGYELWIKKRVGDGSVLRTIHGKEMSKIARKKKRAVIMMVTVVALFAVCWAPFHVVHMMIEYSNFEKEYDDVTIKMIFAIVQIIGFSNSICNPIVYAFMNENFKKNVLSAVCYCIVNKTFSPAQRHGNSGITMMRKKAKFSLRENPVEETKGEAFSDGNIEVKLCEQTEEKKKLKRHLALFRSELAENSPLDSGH
# human MOPr = human MOPr (Homo sapiens, UniProt P35372); assay: BRET1 β-arrestin-2 recruitment assay; type: cell-based; set-up: expressed in transfected cells; host or cells: HEK293 cells stably expressing eYFP-β-arrestin-2, transiently transfected with the Rluc8-MOP plasmid; conditions: for Emax: read-out: MOPr (β-arrestin-2) Emax;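 as to Emax: Emax relative to maximal DAMGO-induced BRET as 100%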;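 as to MOPr (β-arrestin-2) Emax: Emax relative to maximal DAMGO-induced BRET as 100%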
# human MOPr, sequence (P35372 whole entry): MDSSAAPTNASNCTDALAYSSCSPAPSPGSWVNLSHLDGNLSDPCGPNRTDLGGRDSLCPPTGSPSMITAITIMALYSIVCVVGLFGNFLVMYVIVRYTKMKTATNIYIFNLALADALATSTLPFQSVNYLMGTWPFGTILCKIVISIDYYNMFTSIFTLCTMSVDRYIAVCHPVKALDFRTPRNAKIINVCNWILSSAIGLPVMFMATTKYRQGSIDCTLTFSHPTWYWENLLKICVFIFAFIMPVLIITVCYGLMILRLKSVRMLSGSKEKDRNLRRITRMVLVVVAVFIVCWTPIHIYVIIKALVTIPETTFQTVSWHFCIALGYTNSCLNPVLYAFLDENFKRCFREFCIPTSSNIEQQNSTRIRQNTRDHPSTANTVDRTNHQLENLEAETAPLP
# How it was run: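 HEK293 cells stably expressing eYFP-β-arrestin-2 were transfected two days before with Rluc8-tagged MOP receptor. BRET was read at 37 °C with 5 μM coelenterazine H, 5 min after agonist addition.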
# GPR10 = biological target: T2, GPR10 (Homo sapiens, UniProt P49683); assay: Radioligand competition binding with [3H]-PrRP-20
# T2 construct: expressed in transfected cells; host or cells: CHO cells (gift from M. Parmentier, IRIBHM, Brussels), membranes
# T2 sequence (P49683 1-370): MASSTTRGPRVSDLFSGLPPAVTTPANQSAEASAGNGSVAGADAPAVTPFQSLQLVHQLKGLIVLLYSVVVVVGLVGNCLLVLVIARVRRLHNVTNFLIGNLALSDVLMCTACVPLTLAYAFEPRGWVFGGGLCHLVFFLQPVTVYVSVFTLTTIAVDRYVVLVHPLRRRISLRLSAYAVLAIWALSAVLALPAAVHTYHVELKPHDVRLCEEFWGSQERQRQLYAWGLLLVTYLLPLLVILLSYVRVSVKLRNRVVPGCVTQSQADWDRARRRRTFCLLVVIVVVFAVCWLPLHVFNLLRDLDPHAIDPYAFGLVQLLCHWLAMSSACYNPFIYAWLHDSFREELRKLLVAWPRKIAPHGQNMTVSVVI
# C57BL/6N mice [1] = assay: Hyperalgesia and analgesic tolerance upon chronic sc. treatment, tail immersion test; type: in vivo; conditions: for antinociceptive effect on day 1: equianalgesic sc. doses, 25 s cut-off; for basal thermal nociceptive threshold (development of hyperalgesia): chronic daily sc., compared with saline
# Procedure: Animal experiments were performed on adult male C57BL/6N male mice (25-30 g weight; Janvier labs, France). Animals were housed in groups of three to five per cage and kept under a 12 h/12 h light/dark cycle at 21±1° C. with ad libitum access to food and water. Experiments were performed during the light-on phase of the cycle. Mice were habituated to the testing room and equipment before starting behavioral experiments. Control and treated group assignment as well as pain response measurements were performed in a blinded manner. Every animal was used only once. 1.11. Drug administration All drugs were dissolved in physiological saline (0.9%) and administered subcutaneously (sc.) at 10 mL/kg (volume/body weight). […] Assessment of thermal nociception The nociceptive sensitivity to thermal stimulation was determined in mice using the warm-water tail immersion tests as previously described [12; 49]. In the tail immersion test, C57BN/6N mice were restrained in a grid pocket and their tail was immersed in a thermostated water bath. The latency (in sec) for tail withdrawal from hot water (47.5±0.5° C.) was taken as a measure of the nociceptive response. In the absence of any nociceptive reaction, a cut-off value of 25 sec was set to avoid tissue damage. Experiments for chronic drug effects were designed according to a protocol enabling the evaluation of time-course of opioid-induced hyperalgesia and development of analgesic tolerance using the tail immersion test. […] For analgesic tolerance evaluation, nociceptive latencies were measured on day 1 and 8 according to the acute effect protocol. For the assessment of hyperalgesia, basal nociceptive latencies were measured every day, 30 min before drug or saline injection. Responses are expressed as latency times (in sec) of tail withdrawal from the hot water.
# human DOPr = biological target: T3, human DOPr (Homo sapiens, UniProt P41143); assay: biochemical; type: binding
# T3 construct: expressed in transfected cells; HEK293-Glo20F cells (cAMP)
# T3 sequence (P41143 whole entry): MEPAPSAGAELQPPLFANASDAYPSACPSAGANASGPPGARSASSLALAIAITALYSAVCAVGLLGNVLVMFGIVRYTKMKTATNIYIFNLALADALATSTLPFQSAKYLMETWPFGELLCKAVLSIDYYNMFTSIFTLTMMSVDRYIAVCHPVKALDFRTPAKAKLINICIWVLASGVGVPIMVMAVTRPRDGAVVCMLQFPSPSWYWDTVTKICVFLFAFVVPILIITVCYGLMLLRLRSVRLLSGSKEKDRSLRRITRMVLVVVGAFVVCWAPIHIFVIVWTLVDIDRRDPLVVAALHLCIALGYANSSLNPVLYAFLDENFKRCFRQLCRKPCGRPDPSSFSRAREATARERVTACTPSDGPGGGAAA
# human KOPr = biological target: T4, human KOPr (Homo sapiens, UniProt P41145); assay: Glo-sensor cAMP assay; type: cell-based
# T4 construct: expressed in transfected cells; HEK293-Glo20F cells (cAMP)
# T4 sequence (P41145 whole entry): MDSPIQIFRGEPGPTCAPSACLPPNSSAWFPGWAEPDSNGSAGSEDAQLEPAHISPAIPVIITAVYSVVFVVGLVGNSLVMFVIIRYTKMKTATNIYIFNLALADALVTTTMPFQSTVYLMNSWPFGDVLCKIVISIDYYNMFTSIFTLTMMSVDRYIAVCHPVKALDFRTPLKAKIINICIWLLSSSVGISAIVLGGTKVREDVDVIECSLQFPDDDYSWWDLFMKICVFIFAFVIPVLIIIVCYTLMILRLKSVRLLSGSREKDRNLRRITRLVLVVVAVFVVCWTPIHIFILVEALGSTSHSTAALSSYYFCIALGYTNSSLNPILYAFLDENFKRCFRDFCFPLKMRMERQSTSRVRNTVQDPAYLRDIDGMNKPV
# Procedure: Stimulation by endogenous RF-amide peptides or test compounds for [^35S]-GTPγS binding to membranes from CHO cells expressing human NPFF1R or NPFF2R, were examined as reported. 1.6. Glo-Sensor cAMP Assay cAMP accumulation assay was essentially done as described with the following modifications: HEK293 cells stably expressing cAMP Glosensor-20F were used, with or without additional stable expression of each individual opioid receptor or NPFF1R. The cAMP responses were measured in presence of D-luciferin (1 mM).
# C57BL/6N mice [2] = assay: CFA-induced inflammatory pain model; type: in vivo; conditions: for CFA-induced thermal hypersensitivity (basal threshold): daily sc., measured before injection
# Procedure: Tail inflammation in C57BL/6N mice was induced by injecting subcutaneously 20 μl of a Complete Freund's Adjuvant (CFA) solution or saline (control mice) 3 cm from the tip of the tail. Twenty-four hours after CFA injection (day 1), inflammation was confirmed by measuring thermal and mechanical hyperalgesia. Mice were then treated sc. daily for 7 days (from day 1 to day 7) with the test compounds or saline (control). Nociceptive threshold to heat stimulation was measured by tail immersion test (47.5±0.5° C.) and tail pressure test each hour for 5 h after the first drug administration in order to determine the peak of the anti-hyperalgesic response. During the following days, basal nociceptive thresholds were evaluated before injection and 2 h after drug injection. Antinociceptive response was calculated as percent of Maximum Possible Effect (% MPE) according to the formula=[(test latency−CFA/saline mice latency)/(cut-off time−CFA/saline mice latency)]×100. In order to limit behavioral sensitization, thermal nociception was evaluated on days 1-2-4-6 and mechanical nociception on days 1-3-5-7.
# [3] = Table 3a, read-out: MOPr (β-arrestin-2) EC50
# [4] = [125I]-43RFa, read-out: Ki ± SEM GPR103
# [5] = [3H]-PrRP-20, read-out: Ki ± SEM GPR10
SMILES,Ki (GPR103) [nM],EC50 (human MOPr; [3]) [nM],β-arrestin-2 recruitment (human MOPr; in words),Emax (human MOPr) [%],Ki (GPR10) [nM],antinociceptive effect on day 1 (C57BL/6N mice [1]),Ki (human DOPr) [nM],EC50 (human KOPr) [nM],Emax (human KOPr) [%],CFA-induced thermal hypersensitivity (basal threshold) (C57BL/6N mice [2]),Ki (GPR103; [4]) [nM],EC50 (human MOPr) [nM],β-arrestin-2 recruitment (human MOPr),Ki (GPR10; [5]) [nM],basal thermal nociceptive threshold (development of hyperalgesia) (C57BL/6N mice [1]),EC50 (human KOPr; read-out: KOPr (cAMP) EC50) [nM],"decrease in antinociception efficacy (AUC) on day 8 compared to day 1 (C57BL/6N mice [1]; daily sc. d1-d8, KGOP01 1.8, KGFF03 1.2, KGFF09 7.4 μmol/kg/d)",analgesic tolerance after 7 days of chronic administration (C57BL/6N mice [2]; in words)
"Cc1cc(O)cc(C)c1C[C@H](N)C(=O)N[C@H](CCCNC(=N)N)C(=O)N[C@H]1Cc2ccccc2CN(CCC(=O)N[C@@H](CCCNC(=N)N)C(=O)N[C@@H](Cc2ccccc2)C(N)=O)C1=O [KGFF03, H-Dmt-D-Arg-Aba-β-Ala-Arg-Phe-NH2] (HELM PEPTIDE1{[Cc1cc(O)cc(C)c1C[C@H](N)C(=O)[*:2]].[dR].[O=C1[C@@H](N[*:1])Cc2ccccc2CN1CCC(=O)[*:2]].R.F.[am]}$$$$V2.0)",> 10000,33.9 ± 8.8,partial agonism,41 ± 11,> 10000,full antinociception,9.1 ± 0.7,95,34 ± 11,not the case,,,,,,,,
"Cc1cc(O)cc(C)c1C[C@H](N)C(=O)N[C@H](CCCNC(=N)N)C(=O)N[C@H]1Cc2ccccc2CN(CCC(N)=O)C1=O [KGOP01, reference compound]",,,,103 ± 9,,full antinociception,5.1 ± 0.5,,18 ± 1,not the case,> 10000,1.6 ± 0.1,full response,> 10000,significant and progressive decrease,> 10000,,
"Cc1cc(O)cc(C)c1C[C@H](N)C(=O)N[C@H](CCCNC(=N)N)C(=O)N[C@H]1Cc2ccccc2CN(CCC(=O)N[C@@H](CCCN2CCC(Cc3ccccc3)CC2)C(=O)N[C@@H](Cc2ccccc2)C(N)=O)C1=O [KGFF09, H-Dmt-D-Arg-Aba-β-Ala-Bpa-Phe-NH2]",,56.4 ± 26.5,partial agonism,42 ± 2,,full antinociception,186 ± 77,,15 ± 1,totally reversed after the third injection,1200,,,> 10000,absent,,less than 25%,significantly less tolerance

# — US20210002231A1 (Centre National de la Recherche Scientifique, priority 2018, published 2021)
